The source of these data is PubChem BioAssay AID1963837 (Molecular Pharmacology Branch, DTP, NCI, 2024).

The viability, T/C is the ratio of treated to control. Usually IC50 stands for the concentration needed to halve the response being measured.

The subject of the experiment is 843126-344-R-J1-PDC complex spheroid viability. Kind of experiment: Anticancer human tumor 843126-344-R-J1-PDC patient-derived melanoma cell line growth inhibition [POLQ]. The note with it: for viability, T/C: stronger effect = lower value. As to the method: Multicellular complex tumor spheroid response to Polymerase (POL) inhibitors (novobiocin, ART-558, RP6685) in combination with a variety of drugs and investigational agents in selected tumor cell lines
The POL inhibitors (novobiocin, ART-558, and RP6685) were evaluated both individually and in combination with standard of care and investigational anticancer small molecules within a complex spheroid model of solid tumors. . Complex spheroids include a stromal component modeled by human endothelial cells (HUVEC) and fibroblasts modeled by human mesenchymal stem cells (MSCs). The concentration ranges selected for each drug and investigational agent were based upon clinically achievable concentrations if the clinical Cmax of the agent was known.
Compounds. The drugs and investigational agents: novobiocin (NSC847541), ART-558 (NSC835418), RP-6685 (NSC848927), peposertib (NSC802822), ceralasertib (NSC780249), elimusertib (NSC800525), camonsertib (NSC841442), AZD-1390 (NSC803789), olaparib (NSC753686), talazoparib (NSC767125), rucaparib (NSC756644), sotorasib (NSC818433), MRTX-1133 (NSC836407), SN-38 (NSC673596), topotecan (NSC609699), epotoside (NSC141540), doxorubicin (NSC123127), gemcitabine (NSC613327), 5-fluorouracil (NSC19893), paclitaxel (NSC125973), vemurafenib (NSC761431), MSA-2 (NSC828583), SN-011 (NSC837082), adavosertib (NSC754352), prexasertib (NSC758257), carboplatin (NSC241240) and oxaliplatin (NSC266046), were obtained from the National Cancer Institute (NCI) Developmental Therapeutics Program Chemical Repository (21). The FDA-approved anticancer drug set is available from the Developmental Therapeutics Program at https://dtp.cancer.gov/organization/dscb/obtaining/. […] The stock solutions were prepared in dimethyl sulfoxide (DMSO, Sigma-Aldrich, St. Louis, MO, cat. D2650), except for the platinum compounds which were prepared in saline (Quality Biological, Gaithersburg, MD, cat. 114-055-101), at 800-fold the tested concentration and stored at -70 degrees C prior to their use. All drugs and investigational agents were tested over a range starting from a high concentration at or near the clinical Cmax and decreasing in half-log increments. If the clinical Cmax for an agent had not been determined, the highest concentration tested was 10 microM, except for SN-38, which was tested at a high concentration of 1 microM.
Cell Culture. All cells were maintained in an incubator at 37 degrees C and 5% CO2 with 95% humidity. The PDC lines were cultured according to standard operating procedures established by the NCI PDMR (https://pdmr.cancer.gov). Table 3 of the manuscript, lists the cell lines along with the number of the three cell types plated to form the mct-spheroids and media for tumor cell growth. After thawing, all PDC lines, except 997537-175-T-J1-PDC and 415267-285-R-J2-PDC, were cultured in Matrigel-coated flasks prepared with a working solution of 1X Ham's F-12 nutrient mix, without supplementation (Thermo Fisher Scientific, cat. 11765054), 100 U/mL penicillin-streptomycin (Thermo Fisher Scientific, cat. 15140122), and 2.5% Matrigel (Corning Inc., Corning, NY, cat. 354248) for the first three passages. The two PDC lines 997537-175-T-J1-PDC and 415267-285-R-J2-PDC were cultured on uncoated flasks. The 857933-349-R-J2-PDC line was cultured in 6C/Colon 1B media containing advanced DMEM/F-12 (Thermo Fisher Scientific, cat. 12634028), 10 mM HEPES (Thermo Fisher Scientific, cat. 15630080), 1X GlutaMAX supplement (Thermo Fisher Scientific, cat. 35050061), 0.1 mg/mL primocin (InvivoGen, San Diego, CA, cat. ant-pm-2), 10% defined fetal bovine serum, heat inactivated (HyClone Laboratories Inc., Logan, UT, cat. SH30070.03HI), 50% L-WRN conditioned media (ATCC, cat. CRL-3276), 1.25 mM N-Acetyl-L-cysteine (Sigma-Aldrich, cat. A9165), 10 mM nicotinamide (Sigma-Aldrich, cat. N0636), 1X B-27 supplement (Thermo Fisher Scientific, cat. 17504044), 1X N-2 supplement (Thermo Fisher Scientific, cat. […]

Where “and” joins values, the source holds several entries; their conditions need not be identical. Equal entries are not always repeated.
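For viability, T/C in this document: spheroids exposed to drugs for seven days before readout.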

As for `CC(C)n1c(=O)n(C)c2cnc3cc(F)c(-c4ccc(OCCCN5CCCCC5)nc4)cc3c21`, the viability, T/C was 88.2% and 82.8% and 83.5% (compound 0.0316 µM); 74.9% and 88.6% and 77.2% (compound 0.1 µM); 89% and 79.8% and 78.8% (compound 0.316 µM); 86.1% and 87.7% and 92.9% (compound 1 µM); 72.1% and 79.5% and 84.4% (compound 3.16 µM); 72.5% and 79.1% and 55.2% (compound 10 µM). Further, under “curve of compound”, the IC50 is above 10 µM.

Consider `C#Cc1c(F)ccc2cc(O)cc(-c3ncc4c(N5CC6CCC(C5)N6)nc(OCC56CCCN5CC(F)C6)nc4c3F)c12` (configuration not stated), for which the viability, T/C reads like this: (compound 0.0316 µM) 90.2% and 115% and 80.5%; (compound 0.1 µM) 116% and 88.3% and 91.5%; (compound 0.316 µM) 96.1% and 97.6% and 95.8%; (compound 1 µM) 78.2% and 100% and 82.2%; (compound 3.16 µM) 95.1% and 96.5% and 95.2%; (compound 10 µM) 87.4% and 85.2% and 85.5%. The IC50 (curve of compound) was above 10 µM.

As for `Nc1ccc(C#CCN(C(=O)Cc2ncc(C(F)(F)F)cc2C(F)(F)F)c2ccc(F)cc2)nn1`, the viability, T/C by setting is: (compound 0.0316 µM) 98.2% [middle of 13 runs]; (compound 0.1 µM) 95.1% [middle of 13 runs]; (compound 0.316 µM) 97.8% [middle of 13 runs]; (compound 1 µM) 92.4% [middle of 12 runs]; (compound 3.16 µM) 90.4% [middle of 13 runs]; (compound 10 µM) 87.2% [middle of 13 runs]. Further, the IC50 (compound alone, run of 01/19/2024) was above 10 µM.

For `CC1COCCN1c1cc(C2(O)CC3CCC(C2)O3)c2cnn(-c3ccn[nH]3)c2n1` (configuration not stated), the viability, T/C is 93.2% and 82.1% and 81.5% (compound 0.0316 µM); 66.9% and 57.4% and 68.6% (compound 0.1 µM); 63.7% and 52.7% and 51.1% (compound 0.316 µM); 38% and 44.3% and 35.9% (compound 1 µM); 29.8% and 23.2% and 26% (compound 3.16 µM); 20% and 15.3% and 18.9% (compound 10 µM). Moreover, the IC50 (curve of compound) was 0.527 µM and 0.355 µM and 0.353 µM.

Take `COc1ccc([C@@H](O)c2cc(-c3ncnc4cc(N5CCOCC5)ccc34)c(F)cc2Cl)nn1`: the viability, T/C is 103% and 80.6% and 95.7% (compound 0.0316 µM); 84.7% and 89.8% and 74.2% (compound 0.1 µM); 92.1% and 102% and 93.4% (compound 0.316 µM); 112% and 87.3% and 81.3% (compound 1 µM); 86.4% and 73.3% and 59.9% (compound 3.16 µM); 66.4% and 71.2% and 48.2% (compound 10 µM). The IC50 (curve of compound) is > 10 µM and 8.43 µM.

As for `O=c1[nH]cc(F)c(=O)[nH]1` + Nc1ccc(C#CCN(C(=O)Cc2ncc(C(F)(F)F)cc2C(F)(F)F)c2ccc(F)cc2)nn1, the IC50 (curve of first compound, second compound 0.0316 µM) is above 10 µM; the IC50 (curve of first compound, second compound 0.1 µM) is above 10 µM; the half-maximal inhibitory concentration (IC50) (curve of first compound, second compound 0.316 µM) was above 10 µM; the IC50 (curve of first compound, second compound 1 µM) is above 10 µM; the IC50 (curve of first compound, second compound 3.16 µM) was above 10 µM; the IC50 (curve of first compound, second compound 10 µM) is above 10 µM. In addition, the viability, T/C reads like this: (second compound 0.0316 µM, first compound 0.0316 µM) 101%; (second compound 0.0316 µM, first compound 0.1 µM) 94.7%; (second compound 0.0316 µM, first compound 0.316 µM) 92.9%; (second compound 0.0316 µM, first compound 1 µM) 92.9%; (second compound 0.0316 µM, first compound 3.16 µM) 95.4%; (second compound 0.0316 µM, first compound 10 µM) 85.5%. Moreover, the viability, T/C reads like this: (second compound 0.1 µM, first compound 0.0316 µM) 103%; (second compound 0.1 µM, first compound 0.1 µM) 110%; (second compound 0.1 µM, first compound 0.316 µM) 103%; (second compound 0.1 µM, first compound 1 µM) 89%; (second compound 0.1 µM, first compound 3.16 µM) 82.4%; (second compound 0.1 µM, first compound 10 µM) 93.4%. In addition, the viability, T/C (second compound 0.316 µM, first compound 0.0316 µM) was 92.4%; the viability, T/C (second compound 0.316 µM, first compound 0.1 µM) was 109%; the viability, T/C (second compound 0.316 µM, first compound 0.316 µM) is 101%; the viability, T/C (second compound 0.316 µM, first compound 1 µM) is 101%; the viability, T/C (second compound 0.316 µM, first compound 3.16 µM) was 111%; the viability, T/C (second compound 0.316 µM, first compound 10 µM) is 92.6%. Further, the viability, T/C (second compound 1 µM, first compound 0.0316 µM) was 110%; the viability, T/C (second compound 1 µM, first compound 0.1 µM) is 107%; the viability, T/C (second compound 1 µM, first compound 0.316 µM) was 108%; the viability, T/C (second compound 1 µM, first compound 1 µM) is 89.5%; the viability, T/C (second compound 1 µM, first compound 3.16 µM) was 94.3%; the viability, T/C (second compound 1 µM, first compound 10 µM) is 90.6%. For the same molecule, the viability, T/C is 107% (second compound 3.16 µM, first compound 0.0316 µM); 87.3% (second compound 3.16 µM, first compound 0.1 µM); 82.8% (second compound 3.16 µM, first compound 0.316 µM); 82.3% (second compound 3.16 µM, first compound 1 µM); 80% (second compound 3.16 µM, first compound 3.16 µM); 82.4% (second compound 3.16 µM, first compound 10 µM). For the same molecule, the viability, T/C runs as follows: (second compound 10 µM, first compound 0.0316 µM) 81.9%; (second compound 10 µM, first compound 0.1 µM) 86.2%; (second compound 10 µM, first compound 0.316 µM) 84.6%; (second compound 10 µM, first compound 1 µM) 81.9%; (second compound 10 µM, first compound 3.16 µM) 88%; (second compound 10 µM, first compound 10 µM) 76.7%.
